According to PubChem BioAssay (NCI):
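Step 1: Grow cells in 96-well plates. Step 2: Expose to compound for 48 hours at 5 concentrations. Step 3: Interpolate endpoints linearly; if unreached, use highest concentration. Definition used: TGI = concentration required for complete inhibition of growth.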

What was measured:
Assay in all cases: NCI-60 cell line screen, 48 h
OVCAR-3 ovarian = tested on: OVCAR-3 ovarian
SW-620 colon = tested on: SW-620 colon
M14 melanoma = tested on: M14 melanoma
CCRF-CEM leukemia = tested on: CCRF-CEM leukemia
HOP-62 NSCLC = tested on: HOP-62 NSCLC
HS 578T breast = tested on: HS 578T breast
CAKI-1 renal = tested on: CAKI-1 renal
NCI-H23 lung = tested on: NCI-H23 lung
HL-60(TB) leukemia = tested on: HL-60(TB) leukemia
SR leukemia = tested on: SR leukemia
KM12 colon = tested on: KM12 colon
HCT-15 colon = tested on: HCT-15 colon
NCI/ADR-RES ovarian = tested on: NCI/ADR-RES ovarian
K-562 leukemia = tested on: K-562 leukemia
UACC-62 melanoma = tested on: UACC-62 melanoma
SK-MEL-2 melanoma = tested on: SK-MEL-2 melanoma
MDA-N = tested on: MDA-N
OVCAR-5 ovarian = tested on: OVCAR-5 ovarian
A549 NSCLC = tested on: A549 NSCLC
MALME-3M melanoma = tested on: MALME-3M melanoma

Compound	TGI (OVCAR-3 ovarian) [µM]	TGI (SW-620 colon) [µM]	TGI (M14 melanoma) [µM]	TGI (CCRF-CEM leukemia) [µM]	TGI (HOP-62 NSCLC) [µM]	TGI (HS 578T breast) [µM]	TGI (CAKI-1 renal) [µM]	TGI (NCI-H23 lung) [µM]	TGI (HL-60(TB) leukemia) [µM]	TGI (SR leukemia) [µM]	TGI (KM12 colon) [µM]	TGI (HCT-15 colon) [µM]	TGI (NCI/ADR-RES ovarian) [µM]	TGI (K-562 leukemia) [µM]	TGI (UACC-62 melanoma) [µM]	TGI (SK-MEL-2 melanoma) [µM]	TGI (MDA-N) [µM]	TGI (OVCAR-5 ovarian) [µM]	TGI (A549 NSCLC) [µM]	TGI (MALME-3M melanoma) [µM]
Cc1ccc2nc(Cl)c(/C=N/N3C(=O)/C(=C/Cc4ccco4)N=C3c3ccccc3)cc2c1	> 100	> 100	73.9	> 100	> 100	> 86.2	> 100	> 84.5	55.9	> 100	> 93.6	> 97.1	> 90.5	> 100	> 100	> 100	39.6	> 100	> 93.5	> 100
[O-][n+]1onc2c1-c1nonc1CC2	43.8	> 100	89.8	> 100	61.2	66.8	> 100	61.4	96.2	> 100	81.5	> 100	> 100	> 100	> 100	65.2	> 100	> 100	> 100	54
Clc1cccc(Cl)c1C1SCc2nc3ncccc3n21 (stereo not given)	> 100	> 100	> 100	> 100	> 100	> 100	> 100	> 100	> 100	> 100	> 100	> 100	> 100	> 100	> 100	> 100	> 100	> 100	> 100	> 100
COc1cc(C2c3cc4c(cc3OC(O)C2C)OCO4)cc(OC)c1O (stereo not given)	27.4	> 100	> 60	> 100	98.9	46.4	> 100	> 100	20.2	> 100	> 100	> 57.4	23.4	> 100	52.4	> 100	5.06	> 100	> 100	29.4
CC(=O)OCC(OC(C)=O)C(OC(C)=O)C(OC(C)=O)C(/C=N\Nc1nc2ccccc2c(=O)[nH]1)OC(C)=O (stereo not given)	> 100	> 100	> 100	> 100	> 100	> 100	> 100	> 100	> 100	> 100	> 100	> 100	> 100	> 100	> 100	> 100	> 100	> 100	> 100	> 100
CC1(c2nc3cc(Cl)c(Cl)cc3[nH]2)CCC(C(=O)O)C(C)(C)O1 (stereo not given)	> 100	> 100	> 100	> 100	> 100	> 100	> 100	> 100	> 100	> 100	> 100	> 100	> 100	> 100	> 100	> 100	> 100	> 100	> 100	> 100
O=C1/C(=C/c2ccc(O)cc2)CCc2ccccc21	52.7	40.1	36.6	10.9	55.4	94.3	91.5	55.2	36.7	16	32.2	40.4	44.8	81.3	46.2	36	57.7	> 91	64.1	42.9
Cc1nn(C(=O)c2ccncc2)c2c1C(c1ccccc1O)SC(N)=N2 (stereo not given)	> 10	> 10	> 10	> 10	> 10	> 10	> 10	> 10	> 10	> 10	> 10	> 10	> 10	> 10	> 10	> 10	> 10	> 10	> 10	> 10
CO[C@H]1C[C@H](O[C@H]2CC[C@]3(C=O)[C@H]4CC[C@]5(C)[C@@H](C6=CC(=O)OC6)CC[C@]5(O)[C@@H]4CC[C@]3(O)C2)O[C@H](C)[C@H]1O[C@@H]1O[C@H](CO[C@@H]2O[C@H](CO)[C@@H](O)[C@H](O)[C@H]2O)[C@@H](O)[C@H](O)[C@H]1O	0.0809	0.179	0.312	> 100	0.0388	0.518	0.0456	0.0531	0.2	0.419	0.515	0.144	0.15	> 100	0.467	0.907	0.286	0.199	0.0254	0.243
COc1cc2c(cc1OC)C(=O)/C(=C/c1ccccc1)C2	> 100	> 100	> 100	99.4	> 100	> 100	> 100	> 100	50	> 100	> 100	> 100	> 100	> 65.6	> 67.7	> 100	> 100	> 100	> 100	> 100
c1ccc(-c2cc(-c3cc(-c4ccccc4)no3)on2)cc1	> 100	> 100	> 100	78.8	> 100	> 100	> 100	> 100	> 100	31.3	> 100	> 100	> 100	49	> 100	> 100	> 100	> 100	> 100	> 100
CC(=O)O[C@H]1C(=O)[C@@]2(C)[C@H]([C@H](OC(=O)c3ccncc3)[C@]3(O)C[C@H](OC(=O)[C@H](O)[C@@H](NC(=O)c4ccccc4)c4ccccc4)C(C)=C1C3(C)C)[C@]1(OC(C)=O)CO[C@@H]1C[C@@H]2O	> 18.5	> 25	> 25	10.7	> 25	> 21	> 25	> 25	1.63	> 25	> 25	> 25	> 25	5.36	> 25	> 25	2.1	> 25	> 25	> 25
CC1=C/C(=C(/c2ccc(O)c(C)c2)c2ccccc2C(=O)O)C=CC1=O	33.2	39	32.5	45.1	38	52	32	36.6	43.6	47	36.6	42.7	80.5	44.7	30.9	38.5	33.2	42.3	35.3	46.8
N#C/C(N)=C(\C#N)N=CNc1ccccc1N	> 100	> 100	> 100	> 100	> 100	> 100	> 100	> 100	> 100	> 100	> 100	> 100	> 100	> 100	> 100	> 100	> 100	> 100	> 100	> 100
CCC(CCCCC1CC[C@H]2CC(=O)C[C@@H]12)OC (stereo not given in full)	> 100	> 100	> 100	> 100	> 100	> 100	> 100	> 100	> 100	> 100	> 100	> 100	> 100	66.1	> 100	> 100	> 100	> 100	> 100	> 100
COC(=O)c1cc(/C=C2\Cc3cc4c(cc3C2=O)CCC4)cc2c1CCC2	> 100	> 100	> 100	> 100	> 100	> 100	> 100	> 100	> 100	> 100	> 100	> 100	> 100	> 100	> 100	> 100	> 100	> 100	> 100	> 100
CC[C@]12C=CCN3CCC4(c5cc(N=Nc6ccc([N+](=O)[O-])cc6)c(OC)cc5N(C)[C@H]4[C@@](O)(C(=O)OC)[C@@H]1OC(C)=O)[C@@H]32 (stereo not given in full)	16.8	> 100	40.5	26.6	43.6	77.8	50	32.4	28.1	32	33.2	57.8	42.2	34.6	> 100	43	38.6	28.2	> 100	36.9
CCCCN1C(=O)C[C@H]2[C@@H]3CCc4cc(OCCN5CCCC5)ccc4[C@H]3CC[C@]2(C)C1=O	23.7	25.1	3.92	15	12.2	39.8	19.2	25.6	> 23.2	23.6	21.9	22.4	38	7.23	10.4	19.2	15.1	24.3	22.5	16.1
CC(C)[C@H](NC(=O)[C@@H](O)[C@H](N)Cc1ccccc1)C(=O)N[C@@H](Cc1ccccc1)C(=O)O	> 100	> 100	> 100	> 100	> 100	> 100	> 100	> 100	> 100	> 100	> 100	> 100	> 100	> 100	> 100	> 100	> 100	> 100	> 100	> 100
N=C(N)c1ccc(-c2ccc(-c3ccc(C(=N)N)cc3)o2)cc1	> 100	> 100	> 100	> 100	> 100	56.9	> 100	87	> 100	> 100	> 100	> 100	> 100	> 100	> 100	59.2	> 100	99.2	> 100	> 100
Clc1ccc(-c2cc(-c3nc4ccccc4[nH]3)no2)cc1	35.7	46.5	34.6	57.4	38.2	79.7	34.7	42.3	37.2	59.7	40	45	73.5	50.2	28.3	34.7	33.8	40.8	36	37.5
Nc1nc(Cl)cc(NCC2(CO)CCC(OCc3ccccc3)C2)n1 (stereo not given)	> 100	> 100	61	> 100	> 100	43.9	45.1	43.8	86.8	80.2	94.6	> 100	25	> 100	> 100	77.3	74.6	> 100	> 100	97.2
